In US20040235869A1, “Nucleoside analog inhibitors of reverse transcriptase” (priority 2003, published 2004):

Experiments:
[1] = target: HIV reverse transcriptase (Human immunodeficiency virus type 1 group M subtype B, UniProt P04585); experiment: HIV reverse transcriptase inhibition primer extension experiment (incorporation of nucleoside triphosphates into DNA by RT, chain termination); assay type: biochemical; details: triphosphate form; template SEQ ID NO:1, primer SEQ ID NO:2; terminated product 38 instead of 53 base pairs; FIG. 2
Excerpt: For primer extension experiments (Example 3), some of the novel nucleoside analog inhibitors were converted to triphosphate form in vitro, such as occurs in mammalian cells by endogenous enzymes.
Once incorporated into the growing DNA strand, transcription is terminated because the nucleosides lack the necessary 3′ hydroxyl group.
The method is analogous to the Sanger sequencing. Specifically, in the presence of a template and four natural nucleotide triphosphates (dATP, dGTP, dCTP and dTTP), a radiolabeled primer is extended to full length by RT, as indicated by a single band on the sequencing gel. Addition of ddTTP, which competes with dTTP, results in the termination of primer extension at the positions of nucleotides opposite adenosine in the template strand. AZTTP, which is also a chain terminator, gives a similar result as ddTTP. If a compounds, e.g., (V) to (VII), in triphosphate form has a branched 3′-group that cannot be accommodated in the 3′-pocket of RT, the compound is not a substrate for RT. Therefore, it will be unable to compete with dTTP, resulting in a completed, extended product. […]
Template cagatagtcttcacgaggcaggtcgtcttgtcctggtActcgtttgcgttccg (SEQ ID NO:1) and primer […] […] With this template and primer, there is only one adenosine in the template to be read into the growing chain as a thymidine (capital and boldface in SEQ ID NO:1). […]

[2] = taken with ddI (Videx or Videx EC); cited from earlier work
[3] = nitrogen at the 3'-branched group; Hossain et al., 1993; Huang et al., 1995; cited from earlier work
[4] = 300 mg x 2/day; cited from earlier work

SMILES: Cc1cn([C@H]2CC[C@@H](COP(=O)(O)OP(=O)(O)OP(=O)(O)O)O2)c(=O)[nH]c1=O [ddTTP]
- chain termination of the primer extension opposite the only A in the template (substrate for RT) [1]: chain terminators

SMILES: CC(C)OC(=O)OCOP(=O)(CO[C@H](C)Cn1cnc2c(N)ncnc21)OCOC(=O)OC(C)C [Viread, tenofovir DF]
- increase of ddI levels in the blood [2]: ≤ 60%, causing increased

SMILES: Cc1cn([C@H]2CC([N+](=O)[O-])[C@@H](CO)O2)c(=O)[nH]c1=O (some centres unmarked) [molecule (I)]
- effectiveness in vivo [3]: ineffective in vivo

SMILES: Nc1nc(NC2CC2)c2ncn([C@H]3C=C[C@@H](CO)C3)c2n1 [Ziagen, abacavir]
- Serious allergic reactions, share of patients [4]: Serious allergic reactions in about 3-5% of patients.

SMILES: Cc1cn([C@H]2C[C@H](N=[N+]=[N-])[C@@H](CO[P@](=O)(O)O[P@](=O)(O)OP(=O)(O)O)O2)c(=O)[nH]c1=O [AZTTP, AZT-triphosphate]
- chain termination of the primer extension opposite the only A in the template (substrate for RT) [1]: chain terminators
